In US12157882B2, “Lactobacillus plantarum strain ATG-K2, ATG-K6 or ATG-K8, and composition for preventing or treating vaginitis comprising same” (ATOGEN CO., LTD, priority 2018, dated 2024):

How the values were obtained:
[1] = system: TNF-α in mouse macrophage cell line RAW264.7; assay: TNF-α ELISA, RAW264.7 cells treated with lactic-acid bacteria lysate; format: cell-based; conditions: lysate 100 μg/ml and 500 μg/ml, 24 hr
Procedure: In order to measure the immunological effects of K2, K6 and K8 lactic-acid bacteria, a cytokine quantification experiment using cells was performed. The cells that were used were a mouse macrophage cell line RAW264.7, and the medium used for each cell experiment was a Gibco® Dulbecco's Modified Eagle Medium (DMEM, Gibco, USA) supplemented with 10% fetal bovine serum (Gibco, USA) and 1% penicillin/streptomycin cocktail (Sigma-Aldrich, Germany). RAW264.7 cells cultured at about 80-90% confluency before material treatment were recovered and seeded in an amount of 1×10^6 cells per well of a 24-well plate. After seeding, culture was carried out in an environment of 37° C. and 5% CO2 for 24 hr in order to realize attachment to the 24-well plate and stabilization thereof. Each well was treated with the lactic-acid bacteria lysate at concentrations of 100 μg/ml and 500 μg/ml, and 1 μg/ml of lipopolysaccharide (LPS, Sigma-Aldrich, Germany) was used as a positive control, and an experimental group not treated with any material was used as a negative control. The cells were cultured at 37° C. and 5% CO2 for 24 hr after material treatment, and the cell culture solution was recovered, followed by enzyme-linked immunosorbent assay (ELISA) for IL-6 and TNF-α. Measurement was performed for IL-6 using a Mouse IL-6 Quantikine ELISA Kit (R&D systems, USA) and for TNF-α using a Mouse TNF-alpha Quantikine ELISA Kit (R&D systems, USA).

[2] = Heat resistance: viable cell count while bathing at 70° C. in a water bath; format: physicochemical
Procedure: In order to investigate the heat resistance of lactic-acid bacteria of the present disclosure, samples were obtained at 20 sec, 40 sec, 60 sec, and 80 sec while bathing at 70° C. in a water bath, a viable cell count was taken to thus determine resistance to heat, and the results thereof are shown in Table 2 below and in FIG. 2. In Table 2 and in FIG. 2, a viable cell count is represented as a Log10 CFU/ml value, and the number in parentheses represents the viability (%) compared to the initial count. Each result value is the average of three independent experiments.

[3] = system: Candida albicans KCTC7678 (CA); assay: Disinfection power through coculture; format: cell-based; conditions: for disinfection power on CA: coculture 1:1, at 24 hr; for CA in coculture: coculture 1:1, at 48 hr
Procedure: (§1) The anti-vaginitis effect of the lactic-acid bacteria of the present disclosure was tested for disinfection power on the vaginitis pathogen through coculture. In the anti-CA experiment, CA at a concentration of about 2.5×10^6 CFU/ml and each of lactic-acid bacteria at a concentration of about 2.5×10^6 CFU/ml were mixed at a ratio of 1:1, and coculture thereof was carried out in a culture medium of YM and MRS mixed at 1:1. In the anti-GV experiment, GV at a concentration of about 1.0×10^8 CFU/ml and each of lactic-acid bacteria at a concentration of about 1.0×10^8 CFU/ml were mixed at a ratio of 1:1 and then inoculated into a 10% horse-serum BHI broth. Each coculture experiment was conducted for 48 hr, and portions of the samples were collected initially and every 24 hr, and a viable cell count was taken through a serial dilution method and a plate-spreading method. In the anti-CA experiment, in order to measure CA alone, a YM plate medium containing ampicillin at a concentration of 100 μg/ml was used. In the anti-GV experiment, CFU was measured by distinguishing the colony forms between GV and lactic-acid bacteria using a 5% rabbit blood BHI plate medium.

[4] = system: Gardnerella vaginalis KCTC5096 (GV); assay: Disinfection power through coculture; format: cell-based; conditions: coculture 1:1, at 24 hr
Procedure: as §1

[5] = system: Escherichia coli KCTC1682 (EC); assay: Disc test, clear zone; format: cell-based; conditions: 35 μl culture solution on 8 mm paper disc, disc diameter subtracted; average of four tests
Procedure: (§2) In order to confirm the antimicrobial functionality of K2, K6 and K8, the antimicrobial activity of lactic-acid bacteria K2, K6 and K8 against a total of seven types of infectious or opportunistic bacteria, including four types of gram-positive SA, LM, SM, and SS and three types of gram-negative EC, PA, and CS, was determined by measuring clear zones through a disc test. Seven types of bacteria cultured overnight in a BHI plate medium were each suspended in 1× phosphate-buffered saline (PBS) until OD600 of about 0.8 was obtained. Each suspension was absorbed with a sterile cotton swab, spread over an agar medium for an antimicrobial activity test for lactic-acid bacteria, in which BHI and MRS were mixed at a ratio of 1:1, and dried for about 3 min. Each 8 mm paper disc (Advantec, Japan) was attached to the dried test agar medium, and 35 μl of each of K2, K6, and K8 solutions cultured in an MRS broth for about 18 to 20 hr was inoculated to the paper disc, dried for about 3 min, cultured at 37° C. and observed. The size of the clear zone formed after culture was determined in a manner in which the diameter thereof was measured and was calculated after subtracting 8 mm, which is the diameter of the paper disc. The unit for the diameter of the clear zone, which is each numerical value in Table 4, is mm, and each abbreviation is as follows: Staphylococcus aureus KCTC1621 (SA), Listeria monocytogenes KCTC3569 (LM), Streptococcus mutans KCTC3065 (SM), Streptococcus salivarius ATG-P1 (SS), Escherichia coli KCTC1682 (EC), Pseudomonas aeruginosa KCTC2004 (PA), Cronobacter sakazakii KCTC2949 (CS).

[6] = system: Cronobacter sakazakii KCTC2949 (CS); assay: Disc test, clear zone; format: cell-based; conditions: 35 μl culture solution on 8 mm paper disc, disc diameter subtracted; average of four tests
Procedure: as §2

[7] = system: Streptococcus mutans KCTC3065 (SM); assay: Disc test, clear zone; format: cell-based; conditions: 35 μl culture solution on 8 mm paper disc, disc diameter subtracted; average of four tests
Procedure: as §2

[8] = system: Staphylococcus aureus KCTC1621 (SA); assay: Disc test, clear zone; format: cell-based; conditions: 35 μl culture solution on 8 mm paper disc, disc diameter subtracted; average of four tests
Procedure: as §2

[9] = system: Listeria monocytogenes KCTC3569 (LM); assay: Disc test, clear zone; format: cell-based; conditions: 35 μl culture solution on 8 mm paper disc, disc diameter subtracted; average of four tests
Procedure: as §2

[10] = system: Pseudomonas aeruginosa KCTC2004 (PA); assay: Disc test, clear zone; format: cell-based; conditions: 35 μl culture solution on 8 mm paper disc, disc diameter subtracted; average of four tests
Procedure: as §2

[11] = system: Streptococcus salivarius ATG-P1 (SS); assay: Disc test, clear zone; format: cell-based; conditions: 35 μl culture solution on 8 mm paper disc, disc diameter subtracted; average of four tests
Procedure: as §2

sheep blood = format: cell-based
Procedure: In order to evaluate the presence or absence of hemolysis of lactic-acid bacteria in relation to safety of probiotics, K2, K6 and K8 strains were inoculated into a tryptic soybean agar (TSA, Difco Laboratories, USA) containing 5% sheep blood, and were then cultured at 37° C. for about 24 to 48 hr.

[12] = Initial, average of three independent experiments

Substance	TNF-α production compared to the control [1]	viability compared to the initial count ([2]; 70° C. water bath, 20 sec)	viable cell count ([2]; 70° C. water bath, 20 sec) [Log10 CFU/ml]	viability compared to the initial count ([2]; 70° C. water bath, 40 sec)	viable cell count ([2]; 70° C. water bath, 40 sec) [Log10 CFU/ml]	viability compared to the initial count ([2]; 70° C. water bath, 60 sec)	viable cell count ([2]; 70° C. water bath, 60 sec) [Log10 CFU/ml]	viability compared to the initial count ([2]; Initial)	viable cell count [2, 12] [Log10 CFU/ml]	disinfection power on CA [3] [%]	CA in coculture [3]	disinfection power on GV [4] [%]	diameter of the clear zone EC [5] [mm]	diameter of the clear zone CS [6] [mm]	diameter of the clear zone SM [7] [mm]	diameter of the clear zone SA [8] [mm]	diameter of the clear zone LM [9] [mm]	diameter of the clear zone PA [10] [mm]	diameter of the clear zone SS [11] [mm]	hemolysis and clear zones (sheep blood)	further results
Lactobacillus plantarum ATG-K6 [Lb. plantarum ATG-K6]	induced	(97.27%	9.43	(87.46%	9.38	(68.88%	9.28	(100.00%	9.44	99.49	completely disappeared	92.50	3.50 ± 0.18	6.13 ± 0.11	4.13 ± 0.11	4.88 ± 0.21	4.75 ± 0.13	4.00 ± 0.18	3.13 ± 0.11	not observed	viability compared to the initial count ([2]; 70° C. water bath, 60 sec, listed as K6): 68.88%
Lactobacillus plantarum ATG-K2 [Lb. plantarum ATG-K2]	induced	(109.65%	8.99	(91.33%	8.92	(70.95%	8.80	(100.00%	8.95	99.03	completely disappeared	87.37	3.38 ± 0.21	6.50 ± 0.18	4.75 ± 0.28	5.00 ± 0.18	5.50 ± 0.18	3.75 ± 0.13	4.13 ± 0.11	not observed	viability compared to the initial count ([2]; 70° C. water bath, 60 sec, listed as K2): 70.95%
Lactobacillus plantarum ATG-K8 [Lb. plantarum ATG-K8]	induced	(89.67%	9.49	(75.26%	9.41	(74.32%	9.41	(100.00%	9.55	99.53	completely disappeared	93.71	3.50 ± 0.18	5.88 ± 0.11	3.88 ± 0.11	4.25 ± 0.13	5.18 ± 0.21	3.88 ± 0.11	4.00 ± 0.18	not observed	viability compared to the initial count ([2]; 70° C. water bath, 60 sec, listed as K8): 74.32%
